Data set [1] concerns S. aureus, MRSA, E. faecalis, VRE, M. smegmatis, M. marinum. Put plainly: In vitro antimicrobial screening, all tested strains. The format is cell-based. The conditions noted are these: antibacterial/antimycobacterial screening.
Data set [2] in a line: Lipophilicity determination by RP-HPLC (log k, log D). Type of data set: physicochemical. The conditions noted are these: for log k: MeOH 72%/H2O 28%; for log D6.5: MeOH 72%/acetate buffered saline pH 6.5; for log D7.4: MeOH 72%/acetate buffered saline pH 7.4. As to the method:
In addition to the mentioned ADME profile, it is responsible for interactions with biological targets. Lipophilicity is recognized as one of the most important parameters influencing ADME and bioactivity and is also part, e.g., of Lipinski’s Rule of Five (Ro5). This thermodynamic parameter describing the molecule’s affinity for an aqueous or relatively lipophilic environment can be characterized by the logarithm of the partition coefficient (log P). In this study, lipophilicity was measured by reversed-phase high-performance liquid chromatography (RP-HPLC) under isocratic conditions with methanol as the organic modifier in the aqueous mobile phase and the logarithm of the capacity factor k was calculated, which is used as the lipophilicity index converted to the log P scale. In addition to the log k values, the logarithm of the distribution coefficient DpH at pH 6.5 and 7.4 was determined to clarify the behavior of the compounds under physiological conditions and possible ionization. Instead of water, a buffer of suitable pH was used as part of the mobile phase. In addition to the above-mentioned experimental methods, commercially available ChemBioDraw Ultra 13.0 and ACD/Percepta ver. 2012 programs were used to calculate the lipophilicity values of all prepared compounds.
A HPLC separation module Waters Alliance 2695 XE equipped with a Waters Dual Absorbance Detector 2486 (Waters Corp., Milford, MA, USA) was used. A chromatographic column Symmetry® C18 5 μm, 4.6 × 250 mm, Part No. W21751W016 (Waters Corp., Milford, MA, USA) was used. The HPLC separation process was monitored by Empower® 3 Chromatography Manager Software (Waters Corp.). Isocratic elution by a mixture of MeOH p.a. (72%) and H2O-HPLC Mili-Q grade (28%) as a mobile phase was used for the determination of capacity factor k. Isocratic elution by a mixture of MeOH p.a. (72%) and acetate buffered saline (pH 7.4 and pH 6.5) (28%) as a mobile phase was used for the determination of distribution coefficient expressed as D7.4 and D6.5. The total flow of the column was 1.0 mL/min, injection 20 μL, column temperature 40 °C, and sample temperature 10 °C. The detection wavelength of 210 nm was chosen. A KI methanolic solution was used for the determination of the dead times (tD). Retention times (tR) were measured in minutes. The capacity factors k were calculated according to the formula k = (tR − tD)/tD, where tR is the retention time of the solute, and tD is the dead time obtained using an unretained analyte. The distribution coefficients DpH were calculated according to the formula DpH = (tR − tD)/tD. Each experiment was repeated three times.

Data set [3] concerns methicillin-resistant S. aureus SA 630. The data set is described as follows: In vitro antistaphylococcal activity, microtitration broth MIC. The format is cell-based. The conditions noted are these: Staphylococcus aureus.
Data set [4] concerns vancomycin-resistant E. faecalis (VRE) 725B. Put plainly: In vitro antienterococcal activity, microtitration broth MIC. The format is cell-based, Enterococcus faecalis. The conditions noted are these: 24 h.
For data set [5], the system named is methicillin-resistant S. aureus SA 3202. Put plainly: In vitro antistaphylococcal activity, microtitration broth MIC. The conditions noted are these: Staphylococcus aureus. Type of data set: cell-based.
Data set [6] relates to methicillin-resistant S. aureus (MRSA) 63718. The data set is described as above. The format is cell-based. Conditions: Staphylococcus aureus.
In data set [7] the test system is Staphylococcus aureus ATCC 29213. Described as above. Type of data set: cell-based. Conditions: Staphylococcus aureus.
The test system of data set [8] is Mycobacterium smegmatis ATCC 700084. Put plainly: In vitro antimycobacterial activity, broth dilution MIC. The format is cell-based. The conditions noted are these: Mycolicibacterium smegmatis. In general terms: Broth dilution looks for growth in wells or tubes with falling amounts of substance.
Data set [9] concerns Mycobacterium marinum CAMP 5644. The description is as above. The format is cell-based. The conditions noted are these: CAMP5644, 504 h.
[10] abbreviates: ATCC700084, 72 h, M. smegmatis ATCC 700084, three days, read-out: MIC MS.
Where [11] appears, read: ATCC700084, M. smegmatis ATCC 700084, read-out: log(1/MIC [M]) MS (converted).
The mark [12] stands for this setting: M. marinum CAMP 5644, 21 days, read-out: MIC MM.
Where [13] appears, read: M. marinum CAMP 5644, read-out: log(1/MIC [M]) MM (converted).

This is an account of results in paper PMC8951032, “Study of Biological Activities and ADMET-Related Properties of Novel Chlorinated N-arylcinnamamides” (International Journal of Molecular Sciences, 2022).

In brackets after ≈: the same amount, converted by molar mass. Read-outs that look alike come from different tables or passages of the source.

Take `O=C(/C=C/c1ccc(Cl)cc1)Nc1ccc(OC(F)(F)F)cc1Br` [1r, (2E)-N-[2-Bromo-4-(trifluoromethoxy)phenyl]-3-(4-chlorophenyl)prop-2-enamide]: the “antimicrobial activity (in words)” value in data set [1] is “total loss of any effect”. Further, in data set [2], the log k stood at 1.0278, the “log D6.5” value was 1.0236 and the “log D7.4” value is 1.0284.

Consider `CC1(C)S[C@@H]2[C@H](NC(=O)[C@H](N)c3ccccc3)C(=O)N2[C@H]1C(=O)O` [AMP, ampicillin, reference compound], for which the MIC is > 4.57e-05 M in [3] (24 h, MRSA SA 630, read-out: log(1/MIC [M]) MRSA2 (converted)); > 4.58e-05 M in [3] (MRSA SA 630, 24 h, read-out: MIC MRSA2); 5.72e-06 M (≈ 2 µg/mL) in data set [4] (read-out: MIC VRE3); 5.75e-06 M (≈ 2.01 µg/mL) in data set [4] (read-out: log(1/MIC [M]) VRE3 (converted)); > 4.57e-05 M in data set [5] (24 h, MRSA SA 3202, read-out: log(1/MIC [M]) MRSA3 (converted)); > 4.58e-05 M in data set [5] (MRSA SA 3202, 24 h, read-out: MIC MRSA3). Also, the MIC was 4.57e-05 M (≈ 16 µg/mL) in data set [6] (24 h, MRSA 63718, read-out: log(1/MIC [M]) MRSA1 (converted)); 4.58e-05 M (≈ 16 µg/mL) in [6] (MRSA 63718, 24 h, read-out: MIC MRSA1); 5.75e-06 M (≈ 2.01 µg/mL) in data set [7] (ATCC29213, 24 h, S. aureus ATCC 29213, read-out: log(1/MIC [M]) SA (converted)); 5.72e-06 M (≈ 2 µg/mL) in data set [7] (ATCC29213, S. aureus ATCC 29213, 24 h, read-out: MIC SA).

Regarding `NNC(=O)c1ccncc1` [INH, isoniazid, reference compound], the MIC in [8] (setting [10]) was 0.000117 M (≈ 16 µg/mL); in [8] (setting [11]), 0.000117 M (≈ 16.1 µg/mL); in data set [9] (setting [12]) it was 0.000467 M (≈ 64 µg/mL); in data set [9] (setting [13]), 0.000468 M (≈ 64.1 µg/mL).

Regarding `O=C(/C=C/c1ccc(Cl)c(Cl)c1)Nc1ccc(OC(F)(F)F)cc1Br` [2r, (2E)-N-[2-Bromo-4-(trifluoromethoxy)phenyl]-3-(3,4-dichlorophenyl)prop-2-enamide], in data set [1], the “antimicrobial activity (in words)” value is reported as “total loss of any effect”. For the same compound, in data set [2], the log k turned out to be 1.2065, the “log D6.5” value is listed as 1.2373 and the “log D7.4” value is reported as 1.2178.

For `CO[C@H]1/C=C/O[C@@]2(C)Oc3c(C)c(O)c4c(O)c(c(/C=N/N5CCN(C)CC5)c(O)c4c3C2=O)NC(=O)/C(C)=C\C=C\[C@H](C)[C@H](O)[C@@H](C)[C@@H](O)[C@@H](C)[C@H](OC(C)=O)[C@@H]1C` [RIF, rifampicin, reference compound], the MIC in [8] (setting [10]) was 1.94e-05 M (≈ 16 µg/mL); in [8] (setting [11]), 1.95e-05 M (≈ 16 µg/mL); in data set [9] (setting [12]), 2.43e-06 M (≈ 2 µg/mL); in data set [9] (setting [13]), 2.45e-06 M (≈ 2.02 µg/mL).

For `O=C(/C=C/c1ccc(Cl)cc1)Nc1cccc(F)c1` [1c, (2E)-3-(4-Chlorophenyl)-N-(3-fluorophenyl)prop-2-enamide], in data set [2], the log k is on record as 0.7859, the “log D6.5” value is 0.7296 and the “log D7.4” value is reported as 0.7325.
